Assay results taken from US8865715B2, “Substituted 7-(1,2,3-Triazol-4-yl)-pyrrolo[2,3-b]pyrazines” (Merck Patent GmbH, priority 2010, dated 2014).

Columns and labels:
Assay type in all cases: biochemical
PDK1 = target: T1, PDK1 (Homo sapiens, UniProt O15530); assay: Test for the inhibition of PDK1 (384-well flashplate, 33P-ATP)
T1 construct: His6 (N)
T1 sequence (O15530 51-556 limits assumed): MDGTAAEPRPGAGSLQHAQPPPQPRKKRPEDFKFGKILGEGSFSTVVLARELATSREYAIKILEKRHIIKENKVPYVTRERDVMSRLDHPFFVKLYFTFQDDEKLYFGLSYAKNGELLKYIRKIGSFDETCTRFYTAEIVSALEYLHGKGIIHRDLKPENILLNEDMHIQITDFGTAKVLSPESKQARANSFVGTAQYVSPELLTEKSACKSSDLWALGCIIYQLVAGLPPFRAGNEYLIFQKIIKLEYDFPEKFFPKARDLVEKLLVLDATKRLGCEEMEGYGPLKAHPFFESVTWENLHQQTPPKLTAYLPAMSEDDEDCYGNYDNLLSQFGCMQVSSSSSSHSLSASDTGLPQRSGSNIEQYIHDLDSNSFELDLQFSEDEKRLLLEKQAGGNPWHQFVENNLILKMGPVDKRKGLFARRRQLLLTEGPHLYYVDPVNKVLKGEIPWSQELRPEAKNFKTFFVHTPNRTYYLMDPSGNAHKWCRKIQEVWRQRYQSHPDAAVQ
Experimental: 4.0 Test for the Inhibition of PDK1
The experimental batches are carried out in a flashplate system with 384 wells/microtitration plate.
In each case, the PDK1 sample His6-PDK1(1-50) (3.4 nM), the PDK1 substrate biotin-bA-bA-[…] (400 nM), 4 μM ATP (with 0.2 μCi of ^33P-ATP/well) and the test substance in 50 μl of conventional experimental solution per well are incubated at 30° C. for 60 min. The test substances are employed in corresponding concentrations (if desired in a dilution series). The control is carried out without test substance. The reaction is stopped using standard methods and washed. The activity of the kinase is measured via the incorporated radioactivity in top count. In order to determine the non-specific kinase reaction (blank value), the experimental batches are carried out in the presence of 100 nM staurosporine.
The radioactivity (decompositions per minute) of the blank value (no use of test substance in the presence of staurosporine) is subtracted from all other radioactivity values. The controls (kinase activity without test substance) are set equal to 100 percent and all other radioactivity values (after subtracting the blank value) are expressed set in relation thereto (for example in % of the control).
IC50 values (50% inhibition) are determined with the aid of statistics programmes, such as, for example, RS1.

[1] = target: T2, TANK binding kinase (TBK1) (Homo sapiens, UniProt Q9UHD2); assay: TBK1-kinase test, 384-well flashplate assay
T2 sequence (Q9UHD2 1-729): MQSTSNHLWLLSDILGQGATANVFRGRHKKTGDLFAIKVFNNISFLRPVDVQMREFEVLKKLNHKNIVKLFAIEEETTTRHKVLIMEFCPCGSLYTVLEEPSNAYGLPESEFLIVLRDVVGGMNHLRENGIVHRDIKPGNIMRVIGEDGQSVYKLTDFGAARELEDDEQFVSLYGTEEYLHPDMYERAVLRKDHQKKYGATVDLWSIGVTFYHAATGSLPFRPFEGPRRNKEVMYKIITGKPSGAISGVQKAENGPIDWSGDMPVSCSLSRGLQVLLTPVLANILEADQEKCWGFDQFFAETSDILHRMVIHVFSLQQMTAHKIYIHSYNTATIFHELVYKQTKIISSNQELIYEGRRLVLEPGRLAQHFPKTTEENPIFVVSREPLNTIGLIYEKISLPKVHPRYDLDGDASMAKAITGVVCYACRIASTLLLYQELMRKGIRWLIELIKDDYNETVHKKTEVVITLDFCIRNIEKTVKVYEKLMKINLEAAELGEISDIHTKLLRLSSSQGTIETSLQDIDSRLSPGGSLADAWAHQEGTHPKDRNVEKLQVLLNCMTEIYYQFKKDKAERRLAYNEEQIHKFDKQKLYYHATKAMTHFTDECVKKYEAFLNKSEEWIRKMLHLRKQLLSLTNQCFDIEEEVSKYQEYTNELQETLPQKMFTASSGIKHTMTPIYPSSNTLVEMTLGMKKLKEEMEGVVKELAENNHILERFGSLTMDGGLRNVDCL
Experimental: The kinase assay is performed as 384-well flashplate assay. 0.6 nM TANK binding kinase (TBK1), 800 nM biotinylated MELK-derived peptide (biotin-Ah-Ah-[…]) and 10 μM ATP (with 0.25 μCi of ^33P-ATP/well) are incubated in a total volume of 50 μl (10 mM MOPS, 10 mM magnesium acetate, 0.1 mM EGTA, 1 mM DTT, 0.02% of Brij35, 0.1% of BSA, pH 7.5) with or without test substance at 30° C. for 120 min. The reaction is stopped using […] of 200 mM EDTA solution, filtered off with suction after 30 min at room temperature, and the wells are washed 3 times with 100 μl of 0.9% NaCl solution. The non-specific proportion of the kinase reaction (blank) is determined using 100 nM staurosporine. Radioactivity is measured in the Topcount. IC50 values are calculated using RS1.

IKKε = target: T3, IKKε (Homo sapiens, UniProt Q14164); assay: IKKε-kinase test (IKKepsilon), 384-well flashplate assay
T3 sequence (Q14164 1-716): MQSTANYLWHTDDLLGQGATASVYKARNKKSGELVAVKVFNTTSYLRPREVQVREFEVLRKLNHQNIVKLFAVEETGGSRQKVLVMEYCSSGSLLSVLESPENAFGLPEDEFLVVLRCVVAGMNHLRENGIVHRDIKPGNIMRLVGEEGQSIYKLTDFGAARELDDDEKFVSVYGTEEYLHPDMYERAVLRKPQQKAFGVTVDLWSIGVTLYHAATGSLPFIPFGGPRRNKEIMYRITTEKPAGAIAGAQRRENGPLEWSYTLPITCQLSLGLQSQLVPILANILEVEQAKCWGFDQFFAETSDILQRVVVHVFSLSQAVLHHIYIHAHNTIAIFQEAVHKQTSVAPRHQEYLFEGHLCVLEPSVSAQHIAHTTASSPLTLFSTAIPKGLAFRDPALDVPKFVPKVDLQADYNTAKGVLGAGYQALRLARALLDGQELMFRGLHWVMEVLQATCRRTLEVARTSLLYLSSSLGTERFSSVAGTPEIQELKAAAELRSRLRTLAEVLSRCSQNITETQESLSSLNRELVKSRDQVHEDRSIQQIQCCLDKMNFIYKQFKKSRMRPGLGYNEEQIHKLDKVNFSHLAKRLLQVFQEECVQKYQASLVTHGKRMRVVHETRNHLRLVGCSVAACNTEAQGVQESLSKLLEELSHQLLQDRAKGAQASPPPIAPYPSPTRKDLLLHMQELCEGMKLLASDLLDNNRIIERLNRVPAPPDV
Experimental: IKKε-Kinase Test (IKKepsilon)
The kinase assay is performed as 384-well flashplate assay. 1 nM IKKε, 800 nM biotinylated IκBα(19-42) peptide (biotin-C6-C6-[…]) and 10 μM ATP (with 0.3 μCi of ^33P-ATP/well) are incubated in a total volume of 50 μl (10 mM MOPS, 10 mM magnesium acetate, 0.1 mM EGTA, 1 mM dithiothreitol, 0.02% of Brij35, 0.1% of BSA, 0.1% of BioStab, pH 7.5) with or without test substance at 30° C. for 120 min. The reaction is stopped using […] of 200 mM EDTA solution, filtered off with suction after 30 min at room temperature, and the wells are washed 3 times with 100 μl of 0.9% NaCl solution. The non-specific proportion of the kinase reaction (blank) is determined using 3 μM EMD 1126352 (BX-795). Radioactivity is measured in the Topcount. IC50 values are calculated using RS1.

SMILES | IC50 (PDK1) | IC50 [1] | IC50 (IKKε)
Cn1cc(-c2cnc3[nH]cc(-c4cn(Cc5ccccc5C#N)nn4)c3n2)cn1 [Compound A4] | 0.0005 to 1 µM | 0.0005 to 1 µM | 0.0005 to 1 µM
c1ccc(Cn2cc(-c3c[nH]c4nccnc34)nn2)cc1 [Compound A1, 7-(1-benzyl-1H-1,2,3-triazol-4-yl)-5H-pyrrolo[2,3-b]pyrazine] | 1 to 10 µM | 1 to 10 µM | 1 to 10 µM
Cn1cc(-c2cnc3[nH]cc(-c4cn(Cc5cccc(F)c5)nn4)c3n2)cn1 [Compound A3] | 0.0005 to 1 µM | 0.0005 to 1 µM | 0.0005 to 1 µM
Cn1cc(-c2cnc3[nH]cc(-c4cn(Cc5ccccc5)nn4)c3n2)cn1 [Compound A2, 7-(1-benzyl-1H-1,2,3-triazol-4-yl)-2-(1-methyl-1H-pyrazol-4-yl)-5H-pyrrolo[2,3-b]pyrazine] | 0.0005 to 1 µM | 0.0005 to 1 µM | 0.0005 to 1 µM
Cn1cc(-c2cnc3[nH]cc(-c4cn(Cc5ccccc5Cl)nn4)c3n2)cn1 [Compound A5] | 0.0005 to 1 µM | 0.0005 to 1 µM | 0.0005 to 1 µM

Results, then the compound that gave them:

IC50 (PDK1) | IC50 [1] | IC50 (IKKε) | SMILES
0.0005 to 1 µM | 0.0005 to 1 µM | – | Cn1cc(-c2cnc3[nH]cc(-c4cn(Cc5ccccc5F)nn4)c3n2)cn1 [Compound A12]
0.0005 to 1 µM | 0.0005 to 1 µM | 0.0005 to 1 µM | Cn1cc(-c2cnc3[nH]cc(-c4cn(Cc5ccc(F)cc5)nn4)c3n2)cn1 [Compound A10]
0.0005 to 1 µM | 0.0005 to 1 µM | 0.0005 to 1 µM | Cn1cc(-c2cnc3[nH]cc(-c4cn(C(CCN5CCCC5)c5ccccc5)nn4)c3n2)cn1 (centres unmarked) [Compound A11, 7-[1-(3-Pyrrolidin-1-yl-1-phenylpropyl)-1H-1,2,3-triazol-4-yl]-2-(1-methyl-1H-pyrazol-4-yl)-5H-pyrrolo[2,3-b]pyrazine]
0.0005 to 1 µM | 0.0005 to 1 µM | 0.0005 to 1 µM | Cn1cc(-c2cnc3[nH]cc(-c4cn(Cc5cccc(F)c5F)nn4)c3n2)cn1 [Compound A7]
